# Measurements from ChEMBL document CHEMBL4507298 (2021).
# Experiments:
# [1] = molecular target: Serine/threonine-protein kinase SIK3 (Homo sapiens) (UniProt Q9Y2K2); conditions: Compound concentration 1000.0 nM
# [2] = molecular target: Growth hormone secretagogue receptor type 1 (Homo sapiens) (UniProt Q92847); assay: Ghrelin (h) (GHS) CEREP ligand profiling; conditions: Compound concentration 10.0 uM
# [3] = molecular target: MAP/microtubule affinity-regulating kinase 3 (Homo sapiens) (UniProt P27448); conditions: Compound concentration 1000.0 nM
# [4] = system: ALK tyrosine kinase receptor (Homo sapiens), Q9UM73 [C1156Y]; conditions: Compound concentration 1000.0 nM
# [5] = molecular target: SRSF protein kinase 1 (Homo sapiens) (UniProt Q96SB4); conditions: Compound concentration 1000.0 nM
# [6] = molecular target: Mitogen-activated protein kinase 10 (Homo sapiens) (UniProt P53779); conditions: Compound concentration 1000.0 nM
# [7] = molecular target: Serine/threonine-protein kinase DCLK3 (Homo sapiens) (UniProt Q9C098); conditions: Compound concentration 1000.0 nM
# [8] = molecular target: Serine/threonine-protein kinase 38-like (Homo sapiens) (UniProt Q9Y2H1); conditions: Compound concentration 1000.0 nM
# Chain of Serine/threonine-protein kinase 38-like (Homo sapiens) (Q9Y2H1 2-464 limits assumed): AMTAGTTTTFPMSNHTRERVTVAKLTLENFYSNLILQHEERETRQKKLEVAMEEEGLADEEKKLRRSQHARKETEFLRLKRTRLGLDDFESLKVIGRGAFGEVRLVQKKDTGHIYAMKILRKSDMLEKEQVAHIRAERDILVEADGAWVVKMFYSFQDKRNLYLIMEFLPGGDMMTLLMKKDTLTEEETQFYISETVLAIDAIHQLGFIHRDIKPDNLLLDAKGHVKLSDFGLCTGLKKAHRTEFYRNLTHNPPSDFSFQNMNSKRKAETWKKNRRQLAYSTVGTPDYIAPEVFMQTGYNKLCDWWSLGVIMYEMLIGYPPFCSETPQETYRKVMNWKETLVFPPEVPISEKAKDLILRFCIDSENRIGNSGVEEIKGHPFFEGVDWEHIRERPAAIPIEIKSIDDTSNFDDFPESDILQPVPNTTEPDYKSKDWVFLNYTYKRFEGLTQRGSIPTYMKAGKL
# [9] = molecular target: Leukotriene B4 receptor 1 (Homo sapiens, UniProt Q15722); assay: Binding assay (LTB4R )
# [10] = molecular target: Mu-type opioid receptor (Homo sapiens) (UniProt P35372); assay: mu (h) (MOP) (agonist site) CEREP ligand profiling; conditions: Compound concentration 10.0 uM
# [11] = system: Receptor-type tyrosine-protein kinase FLT3 (Homo sapiens), P36888 [UNDEFINED MUTATION]; conditions: Compound concentration 1000.0 nM
# [12] = molecular target: Serine/threonine-protein kinase 24 (Homo sapiens) (UniProt Q9Y6E0); conditions: Compound concentration 1000.0 nM
# [13] = molecular target: 5-hydroxytryptamine receptor 5A (Homo sapiens) (UniProt P47898); conditions: Compound concentration 10.0 uM
# [14] = molecular target: Serine/threonine-protein kinase tousled-like 1 (Homo sapiens) (UniProt Q9UKI8); conditions: Compound concentration 1000.0 nM
# [15] = molecular target: 5-hydroxytryptamine receptor 7 (Homo sapiens) (UniProt P34969); assay: 5-HT7 (h) CEREP ligand profiling; conditions: Compound concentration 10.0 uM
# [16] = molecular target: Myosin-IIIb (Homo sapiens) (UniProt Q8WXR4); conditions: Compound concentration 1000.0 nM
# [17] = molecular target: Dual specificity testis-specific protein kinase 1 (Homo sapiens) (UniProt Q15569); conditions: Compound concentration 1000.0 nM
# [18] = molecular target: Serine/threonine-protein kinase MARK2 (Homo sapiens) (UniProt Q7KZI7); conditions: Compound concentration 1000.0 nM
# [19] = molecular target: 5-hydroxytryptamine receptor 2B (Homo sapiens) (UniProt P41595); assay: 5-HT2B (h) (agonist site/DOI) CEREP ligand profiling; conditions: Compound concentration 10.0 uM
# Chain of 5-hydroxytryptamine receptor 2B (Homo sapiens) (P41595 whole entry): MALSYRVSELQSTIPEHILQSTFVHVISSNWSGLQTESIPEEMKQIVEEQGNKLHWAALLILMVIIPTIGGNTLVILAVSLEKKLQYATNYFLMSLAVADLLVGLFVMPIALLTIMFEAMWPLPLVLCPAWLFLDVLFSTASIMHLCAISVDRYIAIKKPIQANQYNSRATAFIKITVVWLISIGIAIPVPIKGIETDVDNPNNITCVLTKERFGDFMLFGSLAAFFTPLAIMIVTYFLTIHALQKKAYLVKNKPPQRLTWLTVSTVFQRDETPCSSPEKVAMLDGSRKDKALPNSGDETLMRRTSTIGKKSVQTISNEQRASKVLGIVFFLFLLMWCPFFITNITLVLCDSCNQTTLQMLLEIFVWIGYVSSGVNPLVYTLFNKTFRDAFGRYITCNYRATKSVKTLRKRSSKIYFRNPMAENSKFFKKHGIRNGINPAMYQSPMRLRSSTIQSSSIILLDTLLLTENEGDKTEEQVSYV
# [20] = molecular target: Serine/threonine-protein kinase 17A (Homo sapiens) (UniProt Q9UEE5); conditions: Compound concentration 1000.0 nM
# [21] = molecular target: Mitogen-activated protein kinase kinase kinase 19 (Homo sapiens) (UniProt Q56UN5); conditions: Compound concentration 1000.0 nM
# [22] = molecular target: Activin receptor type-1-like (Homo sapiens) (UniProt P37023); conditions: Compound concentration 1000.0 nM
# [23] = molecular target: Sigma intracellular receptor 2 (Homo sapiens) (UniProt Q5BJF2); conditions: Compound concentration 10.0 uM
# Chain of Sigma intracellular receptor 2 (Homo sapiens) (Q5BJF2 whole entry): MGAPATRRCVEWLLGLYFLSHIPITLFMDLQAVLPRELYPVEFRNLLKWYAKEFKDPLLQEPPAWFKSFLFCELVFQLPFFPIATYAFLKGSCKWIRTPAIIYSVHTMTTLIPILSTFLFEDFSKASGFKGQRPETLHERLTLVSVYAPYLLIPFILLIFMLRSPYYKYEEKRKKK
# [24] = molecular target: Muscarinic acetylcholine receptor M3 (Homo sapiens) (UniProt P20309); assay: M3 (h) CEREP ligand profiling; conditions: Compound concentration 10.0 uM
# Chain of Muscarinic acetylcholine receptor M3 (Homo sapiens) (P20309 whole entry, looked up): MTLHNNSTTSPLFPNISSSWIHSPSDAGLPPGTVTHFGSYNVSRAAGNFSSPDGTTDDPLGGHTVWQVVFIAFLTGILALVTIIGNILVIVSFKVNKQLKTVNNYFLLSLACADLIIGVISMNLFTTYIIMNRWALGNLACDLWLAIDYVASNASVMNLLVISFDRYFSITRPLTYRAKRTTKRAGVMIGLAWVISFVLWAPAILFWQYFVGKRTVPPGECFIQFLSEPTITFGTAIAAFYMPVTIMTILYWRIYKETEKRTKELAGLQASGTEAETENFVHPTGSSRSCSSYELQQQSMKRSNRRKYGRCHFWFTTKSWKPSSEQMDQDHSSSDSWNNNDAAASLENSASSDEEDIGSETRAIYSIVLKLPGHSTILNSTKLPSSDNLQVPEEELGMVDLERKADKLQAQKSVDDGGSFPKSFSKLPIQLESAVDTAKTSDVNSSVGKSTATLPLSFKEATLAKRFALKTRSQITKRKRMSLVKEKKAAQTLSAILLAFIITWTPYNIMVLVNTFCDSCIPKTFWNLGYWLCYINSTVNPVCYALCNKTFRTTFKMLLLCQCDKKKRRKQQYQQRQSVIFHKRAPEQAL
# [25] = system: Mast/stem cell growth factor receptor Kit (Homo sapiens), P10721 [D816H]; conditions: Compound concentration 1000.0 nM
# [26] = molecular target: Beta-adrenergic receptor kinase 1 (Homo sapiens) (UniProt P25098); conditions: Compound concentration 1000.0 nM
# [27] = molecular target: Mitogen-activated protein kinase kinase kinase 3 (Homo sapiens) (UniProt Q99759); conditions: Compound concentration 1000.0 nM
# [28] = molecular target: Serine/threonine-protein kinase PLK3 (Homo sapiens) (UniProt Q9H4B4); conditions: Compound concentration 1000.0 nM
# [29] = molecular target: T1, 5-hydroxytryptamine receptor 3A (Homo sapiens) (UniProt P46098); assay: 5-HT3 (h) CEREP ligand profiling; conditions: Compound concentration 10.0 uM
# T1 sequence (whole entry): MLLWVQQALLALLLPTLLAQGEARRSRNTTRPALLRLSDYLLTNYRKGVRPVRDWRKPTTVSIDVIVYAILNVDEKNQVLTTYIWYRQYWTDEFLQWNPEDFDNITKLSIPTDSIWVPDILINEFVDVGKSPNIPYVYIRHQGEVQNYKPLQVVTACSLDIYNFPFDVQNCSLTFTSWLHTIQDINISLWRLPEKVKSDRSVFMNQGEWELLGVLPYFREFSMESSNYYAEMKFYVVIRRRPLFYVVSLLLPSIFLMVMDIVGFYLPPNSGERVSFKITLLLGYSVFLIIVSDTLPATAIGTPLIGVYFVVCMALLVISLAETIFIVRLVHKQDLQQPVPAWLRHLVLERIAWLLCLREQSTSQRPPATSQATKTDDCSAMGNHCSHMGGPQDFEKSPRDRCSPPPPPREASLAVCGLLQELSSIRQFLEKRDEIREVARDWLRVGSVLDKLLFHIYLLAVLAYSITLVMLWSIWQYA
# [30] = molecular target: Ribosomal protein S6 kinase alpha-4 (Homo sapiens) (UniProt O75676); conditions: Compound concentration 1000.0 nM
# [31] = molecular target: Serine/threonine-protein kinase BRSK1 (Homo sapiens) (UniProt Q8TDC3); conditions: Compound concentration 1000.0 nM
# Chain of Serine/threonine-protein kinase BRSK1 (Homo sapiens) (Q8TDC3 whole entry): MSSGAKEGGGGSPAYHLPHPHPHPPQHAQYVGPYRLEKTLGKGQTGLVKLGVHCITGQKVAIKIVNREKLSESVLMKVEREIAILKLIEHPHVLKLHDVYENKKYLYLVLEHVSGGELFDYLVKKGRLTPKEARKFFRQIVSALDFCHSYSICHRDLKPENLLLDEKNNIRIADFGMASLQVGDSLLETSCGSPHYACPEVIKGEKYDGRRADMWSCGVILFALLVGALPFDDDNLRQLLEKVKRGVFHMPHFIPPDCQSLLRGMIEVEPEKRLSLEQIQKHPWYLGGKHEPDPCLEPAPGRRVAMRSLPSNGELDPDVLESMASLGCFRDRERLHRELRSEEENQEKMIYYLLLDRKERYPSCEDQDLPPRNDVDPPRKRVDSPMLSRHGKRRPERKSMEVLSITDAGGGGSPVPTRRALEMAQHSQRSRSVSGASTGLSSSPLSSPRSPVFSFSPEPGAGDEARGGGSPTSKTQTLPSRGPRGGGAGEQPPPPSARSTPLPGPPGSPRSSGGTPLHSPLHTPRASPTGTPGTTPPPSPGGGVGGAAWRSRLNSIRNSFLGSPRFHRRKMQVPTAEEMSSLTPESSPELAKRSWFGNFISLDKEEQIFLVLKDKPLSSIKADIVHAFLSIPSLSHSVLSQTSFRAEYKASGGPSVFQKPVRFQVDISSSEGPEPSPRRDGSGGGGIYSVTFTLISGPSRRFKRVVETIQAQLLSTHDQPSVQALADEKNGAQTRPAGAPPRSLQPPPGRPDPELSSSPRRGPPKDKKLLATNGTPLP
# [32] = molecular target: Tumor necrosis factor (Homo sapiens) (UniProt P01375); assay: TNF-alpha (h) CEREP ligand profiling; conditions: Compound concentration 10.0 uM
# [33] = molecular target: Ribosyldihydronicotinamide dehydrogenase [quinone] (Homo sapiens) (UniProt P16083); assay: (§1) ML2 (MT3) CEREP ligand profiling; conditions: Compound concentration 10.0 uM
# Chain of Ribosyldihydronicotinamide dehydrogenase [quinone] (Homo sapiens) (P16083 whole entry): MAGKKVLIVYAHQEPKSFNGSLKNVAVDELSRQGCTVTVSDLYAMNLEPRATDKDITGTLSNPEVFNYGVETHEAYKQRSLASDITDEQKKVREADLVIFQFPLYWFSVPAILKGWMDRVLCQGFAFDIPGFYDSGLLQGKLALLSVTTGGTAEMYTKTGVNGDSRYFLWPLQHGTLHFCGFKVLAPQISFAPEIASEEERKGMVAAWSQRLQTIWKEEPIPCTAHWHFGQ
# [34] = molecular target: Ribosyldihydronicotinamide dehydrogenase [quinone] (Homo sapiens, UniProt P16083); assay: as §1
# Chain of Ribosyldihydronicotinamide dehydrogenase [quinone] (P16083 whole entry): as above
# [35] = molecular target: Bone morphogenetic protein receptor type-2 (Homo sapiens) (UniProt Q13873); conditions: Compound concentration 1000.0 nM
# [36] = molecular target: Serine/threonine-protein kinase PAK 1 (Homo sapiens) (UniProt Q13153); conditions: Compound concentration 1000.0 nM
# [37] = molecular target: Vascular endothelial growth factor receptor 3 (Homo sapiens) (UniProt P35916); conditions: Compound concentration 1000.0 nM
# [38] = system: Hepatocyte growth factor receptor (Homo sapiens), P08581 [Y1235D]; conditions: Compound concentration 1000.0 nM
# Histamine H4 receptor = Histamine H4 receptor (Homo sapiens, UniProt Q9H3N8); assay: GPCRScan assay: inhibition of H4; parameters: radioligand conc. used [nm] 1.0 – 5.0, parental cells HEK T
# Chain of Histamine H4 receptor (Q9H3N8 whole entry): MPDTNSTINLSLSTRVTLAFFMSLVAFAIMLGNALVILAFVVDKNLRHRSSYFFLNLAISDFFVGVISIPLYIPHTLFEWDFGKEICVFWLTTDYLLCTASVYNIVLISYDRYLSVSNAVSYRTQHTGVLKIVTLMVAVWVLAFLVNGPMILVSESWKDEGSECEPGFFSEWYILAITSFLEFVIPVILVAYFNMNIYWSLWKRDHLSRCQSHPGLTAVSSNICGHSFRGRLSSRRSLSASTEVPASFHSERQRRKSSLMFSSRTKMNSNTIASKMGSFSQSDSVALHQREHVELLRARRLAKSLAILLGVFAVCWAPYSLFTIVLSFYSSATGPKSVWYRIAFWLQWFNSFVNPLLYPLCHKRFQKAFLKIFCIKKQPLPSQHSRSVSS
# Chain of Serine/threonine-protein kinase SIK3 (Homo sapiens) (Q9Y2K2 whole entry, looked up): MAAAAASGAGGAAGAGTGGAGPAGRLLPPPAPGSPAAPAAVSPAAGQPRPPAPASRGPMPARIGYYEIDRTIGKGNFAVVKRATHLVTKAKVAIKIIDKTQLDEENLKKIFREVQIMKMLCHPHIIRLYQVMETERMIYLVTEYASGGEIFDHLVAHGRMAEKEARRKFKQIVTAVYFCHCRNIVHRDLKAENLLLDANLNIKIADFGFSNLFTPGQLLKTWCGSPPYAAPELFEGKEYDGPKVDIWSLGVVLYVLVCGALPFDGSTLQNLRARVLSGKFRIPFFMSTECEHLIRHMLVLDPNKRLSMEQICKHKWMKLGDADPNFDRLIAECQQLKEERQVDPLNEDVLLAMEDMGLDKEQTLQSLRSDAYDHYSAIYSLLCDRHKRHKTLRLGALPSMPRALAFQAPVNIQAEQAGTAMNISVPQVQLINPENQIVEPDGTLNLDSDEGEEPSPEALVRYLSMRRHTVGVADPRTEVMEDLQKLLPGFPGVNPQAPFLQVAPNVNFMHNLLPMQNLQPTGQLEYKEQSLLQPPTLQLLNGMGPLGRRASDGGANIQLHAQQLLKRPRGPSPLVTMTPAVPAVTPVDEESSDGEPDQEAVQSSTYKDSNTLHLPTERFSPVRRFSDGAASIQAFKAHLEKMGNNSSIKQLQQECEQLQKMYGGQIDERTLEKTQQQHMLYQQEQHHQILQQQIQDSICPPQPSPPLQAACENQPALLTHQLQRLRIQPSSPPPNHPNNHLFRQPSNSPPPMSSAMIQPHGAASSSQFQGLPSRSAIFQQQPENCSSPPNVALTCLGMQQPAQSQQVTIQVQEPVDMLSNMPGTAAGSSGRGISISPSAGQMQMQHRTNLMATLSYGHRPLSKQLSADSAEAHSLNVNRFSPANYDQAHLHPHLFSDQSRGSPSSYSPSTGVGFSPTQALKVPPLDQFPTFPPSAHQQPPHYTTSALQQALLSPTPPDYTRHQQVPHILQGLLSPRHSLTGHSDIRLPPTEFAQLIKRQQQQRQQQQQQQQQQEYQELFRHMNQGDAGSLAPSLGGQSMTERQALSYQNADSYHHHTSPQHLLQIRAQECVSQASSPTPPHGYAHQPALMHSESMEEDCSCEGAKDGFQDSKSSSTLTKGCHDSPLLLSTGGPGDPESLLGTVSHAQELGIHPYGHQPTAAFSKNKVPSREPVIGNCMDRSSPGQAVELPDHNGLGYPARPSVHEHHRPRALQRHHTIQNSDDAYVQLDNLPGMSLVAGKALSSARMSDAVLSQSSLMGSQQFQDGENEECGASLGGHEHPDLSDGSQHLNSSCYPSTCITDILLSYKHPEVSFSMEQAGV
# Chain of Growth hormone secretagogue receptor type 1 (Homo sapiens) (Q92847 whole entry): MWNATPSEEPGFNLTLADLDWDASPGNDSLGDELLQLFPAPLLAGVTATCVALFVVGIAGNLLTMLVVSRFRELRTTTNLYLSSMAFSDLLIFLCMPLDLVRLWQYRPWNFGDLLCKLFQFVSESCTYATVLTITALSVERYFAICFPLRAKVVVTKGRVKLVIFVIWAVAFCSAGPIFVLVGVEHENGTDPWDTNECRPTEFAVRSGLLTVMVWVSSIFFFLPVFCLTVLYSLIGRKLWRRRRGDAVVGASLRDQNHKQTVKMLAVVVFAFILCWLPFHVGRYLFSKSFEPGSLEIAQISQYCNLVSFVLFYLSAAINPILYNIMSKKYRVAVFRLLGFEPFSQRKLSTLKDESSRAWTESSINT
compound,measurement,setting,value
COc1ccc2cc(OCC3(C(=O)O)CN(C(=O)c4ccc(F)cc4)C3)ccc2c1 [PF-04418948],residual activity,[1],72%
same,inhibition,[2],-6%
same,residual activity,[3],94%
same,residual activity,[4],79%
same,residual activity,[5],72%
same,residual activity,[6],85%
same,residual activity,[7],98%
same,residual activity,[8],86%
same,Ki,[9],4800 nM (not active)
same,inhibition,[10],-7%
same,residual activity,[11],91%
same,residual activity,[12],85%
same,inhibition,[13],-8.97%
same,residual activity,[14],87%
same,inhibition,[15],-2%
same,residual activity,[16],71%
same,residual activity,[17],98%
same,residual activity,[18],91%
same,inhibition,[19],13%
same,residual activity,[20],81%
same,residual activity,[21],82%
same,residual activity,[22],93%
same,inhibition,[23],-1.29%
same,inhibition,[24],1%
same,residual activity,[25],82%
same,residual activity,[26],72%
same,residual activity,[27],97%
same,residual activity,[28],95%
same,inhibition,[29],-6%
same,residual activity,[30],85%
same,residual activity,[31],85%
same,inhibition,[32],-1%
same,inhibition,[33],93%
same,IC50,[34],530 nM
same,Ki,[34],520 nM
same,residual activity,[35],87%
same,residual activity,[36],87%
same,residual activity,[37],75%
same,residual activity,[38],91%
O=C(c1ccc(F)cc1)N1CC(COc2ccc(Br)cc2)(C(=O)O)C1 [PF-04475866],Ki,Histamine H4 receptor,10000 nM
